Activity calls are given as the source filed them. The rule behind the calls is not given here. Some results are limits rather than exact numbers.

The nature of the assay: non-covalent RecA intein splicing inhibitors, dose response, biochemical, cell-free, fluorescence, secondary screen (AID 449750).
With `COc1ccc(C(C(=O)NC2CCCCC2)N(C(=O)CCl)c2cccc(Cl)c2)cc1` (configuration not stated), the AC50 is 0.577 µM.
Consider `CCOC(=O)C1=C(c2ccccc2)NC(N)=NC1c1ccc(OCc2ccc(C(=O)OC)cc2)cc1` (configuration not stated), for which the AC50 is 9.55 µM.
Next, `CC(=O)OCCN(C)c1cc(SC(C)C)c2nonc2c1[N+](=O)[O-]`: > 38 µM (inactive).
As to `CC1=NN(c2ccccc2)C(=O)/C1=C\c1cn(C)c2ccccc12`, the AC50 is > 38 µM (inactive).
In the case of `Cc1ccc(S(=O)(=O)NCC2CCC(C(=O)NCCCN3CCOCC3)CC2)cc1` (configuration not stated) it was > 38 µM (inactive).
In the case of `CC(C)Cc1ccc(-c2cc(=O)[nH][nH]2)cc1` it was 13.1 µM; in that of `Cc1ccc(NC2=C(NCCO)C(=O)c3ccccc3C2=O)cc1`, 20.3 µM; in that of `CCOc1cccc(-c2cc(=O)[nH][nH]2)c1`, 10.7 µM.
Take `Cc1ccc(C2C(C#N)=C(N)Oc3n[nH]c(-c4ccccc4)c32)o1` (configuration not stated): the AC50 is > 38 µM (inactive).
For the compound `CCSc1nnc(NC(=O)c2nc(S(=O)(=O)Cc3ccc(F)cc3)ncc2Cl)s1`, the AC50 is > 38 µM (inactive).
In the case of `[O-][n+]1c2c(nc3c1-c1ccccc1C3O)CCCC2` (configuration not stated) it was 31.2 µM; in that of `COC(=O)N/N=C\c1ccc(OC(=O)c2ccco2)cc1`, > 38 µM (inactive); in that of `CN(C(=O)C(Cl)Cl)c1ccc(OC(=O)c2ccco2)cc1`, > 38 µM (inactive).
Turning to `N#CC(c1ccccc1)c1cnccn1` (configuration not stated), the AC50 is > 38 µM (inactive).
Next, `Cc1ccc(C(=O)c2coc3cc([N+](=O)[O-])c(O)c([N+](=O)[O-])c23)cc1`: > 38 µM (inactive); `COc1ccc(-n2nc3c(c2NC(=O)CCl)CSC3)cc1`: 26.9 µM; `CCS(=O)(=O)c1ncc(Cl)c(C(=O)Nc2ccc(C)cc2)n1`: > 38 µM (inactive).
For `CC(=O)N(CCC(Cc1ccccc1)c1ccc2c(c1)OCO2)Cc1ccccc1F` (configuration not stated), the AC50 was 3.99 µM.
Next, `O=C(Nc1ccccc1)c1nnsc1S(=O)c1ccc(Cl)cc1` (configuration not stated): > 38 µM (inactive); `Nc1ccc2nc(N3CCOCC3)sc2c1`: > 38 µM (inactive).
As to `N#CC1=C(N)C(C#N)(C#N)[C@H](c2c(F)cccc2F)[C@H]2CC3(CC=C12)OCCO3`, the AC50 was > 38 µM (inactive).
`CC(C)[C@H](NC(=O)Nc1ccc(Oc2ccccc2)cc1)C(=O)O`: the AC50 is > 38 µM (inactive).
Take `COC(=O)c1c(NC(=O)/C=C/C(=O)O)sc(Cc2ccccc2)c1C`: the AC50 was 2.33 µM.
For the compound `CCc1nnc(NC(=O)c2nc(S(=O)(=O)Cc3ccc(C)cc3)ncc2Cl)s1`, the AC50 was > 38 µM (inactive).
Consider `CC(C)CCn1c(N)c(C(=O)NCc2cccs2)c2nc3ccccc3nc21`, for which the AC50 is > 38 µM (inactive).
Next, `Cc1ccc(S(=O)(=O)c2c(N)n(CCC(C)C)c3nc4ccccc4nc23)cc1`: 5.3 µM; `COc1ccc(C2CC(c3cccs3)=NN2C(=O)CSC2=NCCS2)cc1` (configuration not stated): 38.2 µM; `COC(=O)c1ccc(-c2ccc(C(c3c(C)[nH][nH]c3=O)c3c(C)[nH][nH]c3=O)o2)cc1`: 1.6 µM.
In the case of `Cc1ccc(C)c(-c2ccc(=O)n(Cc3cccc(Br)c3)n2)c1` it was 16.7 µM; in that of `Cc1nnc(N/N=C/c2cccc(OCc3ccc(Cl)c(Cl)c3)c2)n1N`, 23.4 µM; in that of `O=C(CCl)Nc1ccc(N=Nc2ccccc2)cc1`, 4.64 µM.
In the case of `COc1ccccc1/C=C/C1(C(=O)NC2CCCC2)CC(=O)N1c1ccc(C)cc1` (configuration not stated) it was 13.3 µM; in that of `O=C(CCl)N1N=C(c2ccco2)CC1c1cccs1` (configuration not stated), 6.09 µM; in that of `O=C(CCl)N(Cc1ccccc1)c1ccccc1`, 4.16 µM.
Turning to `Cc1ccc(C(=O)n2cnc3ccccc32)cc1C`, the AC50 is > 38 µM (inactive).
For `Cc1ccc(C(C[N+](=O)[O-])c2c(C)[nH]n(-c3ccccc3)c2=O)cc1` (configuration not stated), the AC50 is 5.5 µM.
Next, `COc1ccc(N2C(=O)C(Cl)=C(N3CCOCC3)C2=O)cc1`: > 38 µM (inactive).

In general, AC50 refers to the midpoint of the concentration-response curve, whichever way the signal moves.

Source of the values: PubChem BioAssay AID449750 (Broad Institute, 2010).
